Read-outs that look alike come from different tables or passages of the source.

The nature of series [1]: Pharmacokinetic study in rats after single oral administration of GLB (HPLC-UV in plasma). Conditions: for concentration at 0.5 h / concentration at 1 h / concentration at 2 h / concentration at 4 h / concentration at 6 h / concentration at 8 h / concentration at 12 h / concentration at 24 h / concentration at 36 h / concentration at 48 h / concentration at 72 h / concentration at 96 h: oral; for concentration at 0.5 h: 0.5 h after single oral GLB 100 mg/kg; for concentration at 1 h: 1 h after single oral GLB 100 mg/kg; for concentration at 2 h: 2 h after single oral GLB 100 mg/kg; for concentration at 4 h: 4 h after single oral GLB 100 mg/kg; for concentration at 6 h: 6 h after single oral GLB 100 mg/kg; for concentration at 8 h: 8 h after single oral GLB 100 mg/kg; for concentration at 12 h: 12 h after single oral GLB 100 mg/kg; for concentration at 24 h: 24 h after single oral GLB 100 mg/kg; for concentration at 48 h: 48 h after single oral GLB 100 mg/kg; for concentration at 72 h: 72 h after single oral GLB 100 mg/kg; for concentration at 96 h: 96 h after single oral GLB 100 mg/kg; for Tmax / half-life / Cmax / AUC(0-inf) / AUC(0-t): rat plasma, single oral GLB 100 mg/kg; for AUC(0-t): read-out: AUC(0-96). It is filed as in vivo, Sprague-Dawley rats. Here is the method: The validated bioanalytical method was applied to the detection of GLB concentration in plasma after a single oral administration of GLB (100 mg/kg, n = 6) in rats. At 0.5 h after oral administration, the prototype drug of GLB was detected in rat plasma. The peak concentration of GLB was at 6 h (2.78 ± 0.89 μg/mL) with quantifiable at the 36 h (0.14 ± 0.18 μg/mL). At 96 h time point, low concentration of GLB was still detectable in rat plasma (Fig. 2B).
HPLC-UV analyses were performed with a DIONEX Ultimate 3000 HPLC system (Thermo Fisher Scientific, MA, USA), which included a double-ternary pump (DGP-3600SD), a temperature controlled automatic sampler (WPS-3000SL), a column temperature box (TCC-3000SD), and a ultraviolet (UV) detector (VWD-3400). The UV detection wavelength was set at 300 nm. The chromatographic separation was achieved on a reversed-phase Alltima C18 analytical column (150 mm × 4.6 mm; 5 μm), and the mobile phase was the mixture of acetonitrile and distilled water (65:35, v/v), running at the flow rate of 1.0 mL/min. The temperature of column box was kept at 25 °C. The injection volume was 20 μL. The HPLC data was processed using Chromeleon^TM 6.8 software (Thermo Fisher Scientific, MA, USA).
Sprague-Dawley rats (Male, 210 ± 20 g, 7–8 weeks) were provided by the Department of Experimental Animal, Beijing University (Beijing, China). Environmental controls for the animal room were set at 22 ± 3 °C with 50 ± 20% relative humidity. This animal study was performed in strict accordance with the recommendations in the Guide for the Care and Use of Laboratory Animals of China Association for Laboratory Animal Science. All animal care and experimental protocols were approved by the Animal Care Committee of Peking University Health Science Center. All sacrifice was performed under pentobarbitone anesthesia, and every effort was made to minimize suffering.
Rats were fasted 12 h prior to the study and were allowed access to food 4 h after oral dosing. Eighteen rats were divided randomly into six groups and rats were sampled at interval in each group. The blood samples at each time point were collected from six rats. The rats were dosed with a suspension of GLB (100 mg/kg, in 0.5% sodium carboxymethyl cellulose CMC-Na solution) and the blood samples were collected at the predose, 0.5, 1, 2, 4, 6, 8, 12, 24, 36, 48, 72 and 96 h post-dosing. The blood samples were centrifuged at 2800 rpm (1473 × g) for 20 min and the plasma was stored at −20 °C until analyzed.
The 400 μL plasma sample was transferred into a glass tube, followed by the addition of 25 μL of IS and 2 mL of extraction solvent ethyl acetate. The mixture was vortexed for 3 min to extract GLB and IS from plasma sample and then centrifuged at 2800 rpm (1473 × g) for 20 min. The upper organic phase was transferred into a glass tube. The sample was extracted twice with 2 mL of ethyl acetate for liquid-liquid extraction. The combined upper organic phases were evaporated to dryness at 37 °C under a gentle stream of nitrogen gas. The residue was reconstituted with 100 μL of methanol and was injected 20 μL into the HPLC system. In addition, in order to perform mass spectrometry analyses, the residue was reconstituted with 150 μL of methanol-water (v/v, 1:1), and then centrifuged at 14000 rpm (17968 × g) for 15 min, the upper liquid was transferred into sample vials and 10 μL was injected for UPLC-QTOF/MS analysis.
The pharmacokinetic parameters of GLB were calculated by a non-compartmental pharmacokinetic analysis method using Drug and Statistical Version 3.0 (DAS 3.0) software (the Mathematical Pharmacology Committee, Chinese Pharmacological Society, China). The maximum peak concentration of the drug in plasma (Cmax) and the time to reach the maximum concentration (Tmax) were estimated from the experimental data. The area under the plasma concentration-time curves from 0 to infinity (i.e., AUC0-∞) and from 0 to 96 h (AUC0-96) were calculated by the trapezoidal summation. […]

Series [2] deals with tumor angiogenesis, growth and metastasis. Set-up: method as in PMID 15960897. The conditions noted are these: in vivo; cited from earlier work.
Where [3] appears, read: male, Sprague-Dawley, rat, plasma, 100 mg/kg, rat, M1/M2 relative to GLB standard curve.
Setting [4] is: male, Sprague-Dawley, rat, plasma, 100 mg/kg, 36 h after single oral GLB 100 mg/kg, rat, M1/M2 relative to GLB standard curve.
The mark [5] stands for this setting: male, Sprague-Dawley, rat, plasma, po, 100 mg/kg, n = 6, read-out: Tmax.
Setting [6] is: male, Sprague-Dawley, n = 6, M1/M2 relative concentrations from GLB standard curve.

Usually Tmax stands for the time at which the peak concentration occurs. As usually defined, the half-life is the time needed for the level to fall by half in the phase considered. Low values mean fast loss, high ones slow loss. The term Cmax denotes the peak of the concentration-time curve. As a reminder, the AUC(0-inf) is total exposure, with the tail of the curve extrapolated. Higher therefore signals more exposure. The compound `CC(=O)N1N=C(c2ccc(Br)cc2)OC12C1OC(C)(C)OC1COC21COC(C)(C)O1` (centres unmarked) [GLB, Fructose-based 3-acetyl-2,3-dihydro-1,3,4-oxadiazole] had a Plasma concentration in series [1] (36 h after single oral GLB 100 mg/kg, rat, M1/M2 relative to GLB standard curve) of 140 ± 180 ng/mL. Further, in series [1] (setting [3]), the concentration at 0.5 h worked out at 43 ± 151 ng/mL, the concentration at 1 h stood at 673 ± 65 ng/mL, the concentration at 2 h was 1400 ± 210 ng/mL and the concentration at 4 h was found to be 1460 ± 210 ng/mL. In series [1] (setting [3]), this compound gave a concentration at 6 h of 2780 ± 887 ng/mL, a concentration at 8 h of 1600 ± 656 ng/mL, a concentration at 12 h of 1470 ± 672 ng/mL and a concentration at 24 h of 262 ± 241 ng/mL. In series [1] (setting [3]), this compound gave a concentration at 48 h of 58 ± 63 ng/mL, a concentration at 72 h of 11 ± 5 ng/mL and a concentration at 96 h of 16 ± 17 ng/mL. In series [1] (setting [4]), this compound displayed a concentration at 36 h of 139 ± 183 ng/mL. Also, in series [1] (setting [5]), the time of peak concentration (Tmax) stood at 6 h. Besides, the half-life in series [1] (male, Sprague-Dawley, n = 6) is 9.24 ± 4.74 h. Also, the maximum concentration (Cmax) in series [1] (male, Sprague-Dawley, n = 6, text, read-out: Cmax) came to 2780 ± 890 ng/mL. Also, in series [1] (setting [6]), the total exposure AUC(0-inf) stood at 33500 ± 9050 ng·h/mL and the AUC(0-t) was 33300 ± 9100 ng·h/mL. In addition, in series [1] (n = 6, M1/M2 relative concentrations from GLB standard curve), the Cmax was 2780 ± 890 ng/mL. Also, the “Effect on tumor angiogenesis, growth and metastasis” value in series [2] was “block the tumor angiogenesis, growth and metastasis in vivo”.
Take `CC(=O)N1N=C(c2ccc(Br)cc2)OC1(C1OC(C)(C)OC1C(=O)O)C1(O)COC(C)(C)O1` (centres unmarked) [M1]: in series [1] (setting [3]), the concentration at 0.5 h worked out at 27 ± 14 ng/mL, the concentration at 1 h was 91 ± 21 ng/mL, the concentration at 2 h stood at 242 ± 55 ng/mL and the concentration at 4 h was determined as 336 ± 59 ng/mL. Moreover, in series [1] (setting [3]), the concentration at 6 h worked out at 517 ± 113 ng/mL, the concentration at 8 h is 443 ± 137 ng/mL, the concentration at 12 h was determined as 390 ± 114 ng/mL and the concentration at 24 h is 185 ± 182 ng/mL. In addition, in series [1] (setting [3]), the concentration at 48 h came out at 24 ± 20 ng/mL, the concentration at 72 h turned out to be 15 ± 9 ng/mL and the concentration at 96 h stood at 25 ± 11 ng/mL. The same compound displayed a concentration at 36 h in series [1] (setting [4]) of 37 ± 15 ng/mL. Moreover, in series [1] (setting [5]), the time of peak concentration (Tmax) amounted to 6 h. In series [1] (male, Sprague-Dawley, n = 6), this compound gave a half-life of 11.3 ± 5.94 h. In addition, in series [1] (setting [6]), the area under the curve AUC(0-inf) was 10000 ± 3340 ng·h/mL and the AUC(0-t) stood at 9660 ± 3380 ng·h/mL. In series [1] (male, Sprague-Dawley, n = 6, M1/M2 relative concentrations from GLB standard curve, read-out: Cmax), the maximum concentration (Cmax) stood at 540 ± 100 ng/mL. Besides, the time of peak concentration (Tmax) in series [1] (n = 6) stood at 7.33 ± 2.73 h.

(Values after article PMC4493701, “Quantitative and qualitative analysis of the novel antitumor 1,3,4-oxadiazole derivative (GLB) and its metabolites using HPLC-UV and UPLC-QTOF-MS” (Scientific Reports, 2015).)
